Results reported in patent US20190343860A1 (Saint Louis University, priority 2016, published 2019).

Key:
[1] = Oxaliplatin-induced mechano-hypersensitivity (paw withdrawal threshold, von Frey); format: in vivo, rat; settings: 0.1 mg/kg/d i.p. concomitant with oxaliplatin
From the text: Mean±SEM, n=6/group, ANOVA with Bonferroni comparisons. *P<0.05 vs. day 0; #P<0.05 vs. vehicle &†P<0.05 vs. Oxaliplatin.

[2] = system: mitochondria in peripheral sensory afferents (PNSAs); test: Mitochondrial ATP production in peripheral sensory afferents after in vivo treatment; set-up: species or system rat; settings: 0.1 mg/kg/d i.p. concomitant with oxaliplatin
Method: ATP assays. Saphenous nerves were harvested from rats 25 days after the initiation of chemotherapy treatments, then minced & teased apart as previously described. Saphenous nerve explants were transferred to MiR05 respiratory buffer & baseline ATP samples were taken after 5 min or after 15 min treatment with MRS5980 or vehicle. ADP (1 mM), glutamate (5 mM), succinate (5 mM), maleate (5 mM) were added for 5 min & samples were taken for ATP. ATP levels were measured by a flash luciferin-luciferase assay (Promega Enliten ATP Assay; Promega, Madison, Wis.) & normalized to citrate synthase activity (Sigma, St Louis, Mo.) in explants homogenates.

[3] = system: intraepidermal nerve fibers (IENFs); test: Incidence of intraepidermal nerve fibers (IENFs) in chemotherapy-treated rats; settings: p<0.05

Question: For `CNC(=O)[C@@]12C[C@@H]1[C@@H](n1cnc3c(NCc4cccc(Cl)c4)nc(C#Cc4ccc(F)c(F)c4)nc31)[C@H](O)[C@@H]2O` [MRS5698], which “Development of mechano-hypersensitivity (Paw Withdrawal Threshold)” value [1] is on record?
Answer: The value was “prevents”.

Question: And the “Mitochondrial ATP production in PNSAs” value [2]?
Answer: Its value is “prevents the deficiencies in mitochondrial ATP production”.

Question: And the “Incidence of IENFs vs. oxaliplatin alone” value ([3]; rats treated with oxaliplatin+MRS5698)?
Answer: The value was “significantly more IENFs”.

Question: And the “Incidence of IENFs vs. paclitaxel alone” value ([3]; rats treated with paclitaxel+MRS5698)?
Answer: The value was “significantly more IENFs”.
